Reference: publication PMC8310277 (Viruses, 2021)
Where a SMILES comes first, the peptide text is derived from it. Bridges are numbered along the chain shown (N, C = ends). Where no end group is shown, it is not given here.

B1: pro-HD5 (protein, UniProt Q01523 20-94, looked up)
pro-form: ESLQERADEATTQKQSGEDNQDLAISFAGNGLSALRTSGSQARATCYCRTGRCATRESLSGVCEISGRLYRLCCR
modifications: pro-form

Tests used:
[1] = system: pseudotyped viruses expressing SARS-CoV-2 spike proteins (Wuhan-Hu-1)
HEK 293T-hACE2 cells = assay: Cytotoxicity assay (MTS); conditions: 1-50 μg/mL, 24 h; hACE2-expressing HEK293T cells; O.D. 490 nm; 4-6 samples
[2] = system: pseudotyped SARS-CoV-2 viruses in lung epithelial A549 cells; format: cell-based; conditions: 25 μg/mL
[3] = system: pseudotyped SARS-CoV-2 viruses in intestinal epithelial Caco-2 cells; conditions: 25 μg/mL

Molecule | anti-SARS-CoV-2 activity (in words) [1] | cytotoxicity (cell viability, MTS, in words) (HEK 293T-hACE2 cells) | also measured
HBD6 (FFDEKCNKLKGTCKNNCGKNEELIALCQKSLKCCRTIQPCGSIID; ends and bridges not checked; cysteine pairing not given here; UniProt Q8N104 21-65, looked up) | did not effectively inhibit viral infection |  | 
HBD5 (GLDFSQPFPSGEFAVCESCKLGRGKCRKECLENEKPDGNCRLNFLCCRQRI; ends and bridges not checked; cysteine pairing not given here; UniProt Q8NG35 28-78, looked up) | did not effectively inhibit viral infection |  | 
HD6 | only blocked SARS-CoV-2 infection at the highest concentration tested | not cytotoxic | 
CC[C@H](C)[C@@H]1NC(=O)[C@H](CCC(=O)O)NC(=O)[C@@H]2CSSC[C@@H]3NC(=O)[C@H](Cc4ccc(O)cc4)NC(=O)[C@@H](NC(=O)[C@@H](NC(=O)[C@H](C)N)[C@@H](C)O)CSSC[C@@H](C(=O)N[C@@H](CCCNC(=N)N)C(=O)O)NC(=O)[C@H](CSSC[C@H](NC(=O)[C@H](CCCNC(=N)N)NC(=O)CNC(=O)[C@H]([C@@H](C)O)NC(=O)[C@H](CCCNC(=N)N)NC3=O)C(=O)N[C@@H](C)C(=O)N[C@@H]([C@@H](C)O)C(=O)N[C@@H](CCCNC(=N)N)C(=O)N[C@@H](CCC(=O)O)C(=O)N[C@@H](CO)C(=O)N[C@@H](CC(C)C)C(=O)N[C@@H](CO)C(=O)NCC(=O)N[C@@H](C(C)C)C(=O)N2)NC(=O)[C@H](CC(C)C)NC(=O)[C@H](CCCNC(=N)N)NC(=O)[C@H](Cc2ccc(O)cc2)NC(=O)[C@H](CC(C)C)NC(=O)[C@H](CCCNC(=N)N)NC(=O)CNC(=O)[C@H](CO)NC1=O [HD5] (H-ATCYCRTGRCATRESLSGVCEISGRLYRLCCR-OH; disulfide 3-31, 5-20, 10-30 (inferred); N-terminus and C-terminus assumed) |  | not cytotoxic | post-entry effect on infection (in words) [1]: None of the tested defensins affected infection after viral entry; protection by pre-treatment of cells (in words) [1]: partially blocked viral infection; suppression of SARS-CoV-2 infection [1]: 60%; inhibition of the earlier Wuhan strain ([1]; pseudotyped viruses expressing spike proteins (Wuhan-Hu-1, 48 h, 50 μg/mL)): 96%; anti-SARS-CoV-2 activity in A549 cells (in words) [2]: exhibited anti-SARS-CoV-2 activity; anti-SARS-CoV-2 activity in Caco-2 cells (in words) [3]: exhibited anti-SARS-CoV-2 activity
HNP4 (VCSCRLVFCRRTELRVGNCLIGGVSFTYCCTRV; ends and bridges not checked; cysteine pairing not given here; UniProt P12838 64-96, looked up) | substantially less potent |  | 
B1 | no anti-SARS-CoV-2 activity |  | 
